In ChEMBL document CHEMBL3351341, “Discovery of a potent and selective EGFR inhibitor (AZD9291) of both sensitizing and T790M resistance mutations that spares the wild type form of the receptor” (J Med Chem, 2014):
Values after ≈ are worked out from the molar mass of the structure shown.

How the values were obtained:
[1] = Antitumor activity against human PC9 cells harboring EGFR exon 19 deletion activating mutant xenografted in SCID mouse assessed as tumor growth inhibition at 10 mg/kg/day, po qd for 7 days relative to control; format: functional, PC-9; settings: Homo sapiens, PC-9, 168 h, read-out: TGI
A-431 = assay: Antitumor activity against human A431 cells xenografted in SCID mouse assessed as tumor growth inhibition at 10 mg/kg/day, po qd for 7 days relative to control; format: functional; settings: Mus musculus, A-431, 168 h, read-out: TGI
[2] = target: T1, Insulin-like growth factor 1 receptor (Homo sapiens, UniProt P08069); assay: Inhibition of IGF1R (unknown origin) at 1 uM relative to control
T1 sequence (P08069 31-736 limits assumed): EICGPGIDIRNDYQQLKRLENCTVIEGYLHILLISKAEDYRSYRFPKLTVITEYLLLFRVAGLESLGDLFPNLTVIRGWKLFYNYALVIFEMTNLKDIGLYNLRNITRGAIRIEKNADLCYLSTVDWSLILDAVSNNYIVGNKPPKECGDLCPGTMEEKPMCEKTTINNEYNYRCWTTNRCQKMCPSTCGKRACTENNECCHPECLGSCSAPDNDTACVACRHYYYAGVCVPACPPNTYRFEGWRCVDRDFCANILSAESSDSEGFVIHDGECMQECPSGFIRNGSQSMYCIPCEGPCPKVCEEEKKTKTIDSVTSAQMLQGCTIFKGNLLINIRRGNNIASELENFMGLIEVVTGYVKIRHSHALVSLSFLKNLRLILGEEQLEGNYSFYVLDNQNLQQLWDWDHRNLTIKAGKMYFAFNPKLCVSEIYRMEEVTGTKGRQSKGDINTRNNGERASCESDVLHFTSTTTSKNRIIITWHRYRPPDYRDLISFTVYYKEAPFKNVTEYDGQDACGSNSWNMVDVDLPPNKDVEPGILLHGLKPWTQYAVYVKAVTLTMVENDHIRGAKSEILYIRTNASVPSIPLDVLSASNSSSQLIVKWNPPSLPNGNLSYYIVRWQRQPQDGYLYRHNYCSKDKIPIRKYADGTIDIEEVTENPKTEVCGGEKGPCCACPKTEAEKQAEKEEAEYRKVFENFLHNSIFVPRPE
T1 sequence (P08069 741-1367 limits assumed): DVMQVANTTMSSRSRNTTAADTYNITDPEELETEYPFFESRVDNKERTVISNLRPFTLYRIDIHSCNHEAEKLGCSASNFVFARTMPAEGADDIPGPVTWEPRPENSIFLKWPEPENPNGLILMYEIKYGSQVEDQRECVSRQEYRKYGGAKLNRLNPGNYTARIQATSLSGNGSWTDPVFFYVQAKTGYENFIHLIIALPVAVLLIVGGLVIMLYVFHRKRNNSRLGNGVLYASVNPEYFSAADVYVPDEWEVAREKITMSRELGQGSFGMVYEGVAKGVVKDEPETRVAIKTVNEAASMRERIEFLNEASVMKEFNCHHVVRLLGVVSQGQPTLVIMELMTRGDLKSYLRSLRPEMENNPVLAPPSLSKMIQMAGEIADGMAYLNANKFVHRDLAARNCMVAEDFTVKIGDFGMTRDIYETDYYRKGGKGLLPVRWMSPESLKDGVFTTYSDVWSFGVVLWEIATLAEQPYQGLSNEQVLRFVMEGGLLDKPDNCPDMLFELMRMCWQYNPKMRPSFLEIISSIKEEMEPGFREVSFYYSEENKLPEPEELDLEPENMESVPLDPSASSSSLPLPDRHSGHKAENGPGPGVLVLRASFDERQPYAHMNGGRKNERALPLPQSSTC

Mus musculus [3] = assay: Inhibition of EGFR exon 19 deletion activating mutant phosphorylation in human PC9 cells xenografted in SCID mouse at 10 mg/kg, po measured 6 hrs post dose; format: functional; settings: PC-9, 6 h
[4] = target: T1, Insulin-like growth factor 1 receptor; assay: Inhibition of IGF1R (unknown origin)
Insulin receptor [5] = target: T2, Insulin receptor (Homo sapiens, UniProt P06213); assay: Inhibition of INSR (unknown origin) at 1 uM relative to control
T2 sequence (P06213 28-758 limits assumed): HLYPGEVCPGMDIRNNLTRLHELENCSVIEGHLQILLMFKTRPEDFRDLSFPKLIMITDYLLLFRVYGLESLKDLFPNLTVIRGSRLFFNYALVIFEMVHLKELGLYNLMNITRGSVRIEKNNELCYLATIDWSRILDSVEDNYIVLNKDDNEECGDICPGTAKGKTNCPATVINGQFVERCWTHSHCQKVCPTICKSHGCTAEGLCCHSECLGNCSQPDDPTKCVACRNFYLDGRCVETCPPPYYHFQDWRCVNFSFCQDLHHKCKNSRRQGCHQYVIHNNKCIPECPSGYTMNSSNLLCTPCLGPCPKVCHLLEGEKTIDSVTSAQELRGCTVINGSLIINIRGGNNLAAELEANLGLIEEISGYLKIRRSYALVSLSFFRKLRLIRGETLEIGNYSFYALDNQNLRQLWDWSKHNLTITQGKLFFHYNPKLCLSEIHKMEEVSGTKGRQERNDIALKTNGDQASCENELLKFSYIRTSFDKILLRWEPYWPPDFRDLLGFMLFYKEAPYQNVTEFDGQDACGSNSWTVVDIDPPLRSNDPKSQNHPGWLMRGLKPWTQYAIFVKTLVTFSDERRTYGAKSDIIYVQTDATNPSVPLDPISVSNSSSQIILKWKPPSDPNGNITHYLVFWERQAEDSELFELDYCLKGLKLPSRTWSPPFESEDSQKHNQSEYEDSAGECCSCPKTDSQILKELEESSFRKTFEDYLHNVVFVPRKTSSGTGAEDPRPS
T2 sequence (P06213 763-1382 limits assumed): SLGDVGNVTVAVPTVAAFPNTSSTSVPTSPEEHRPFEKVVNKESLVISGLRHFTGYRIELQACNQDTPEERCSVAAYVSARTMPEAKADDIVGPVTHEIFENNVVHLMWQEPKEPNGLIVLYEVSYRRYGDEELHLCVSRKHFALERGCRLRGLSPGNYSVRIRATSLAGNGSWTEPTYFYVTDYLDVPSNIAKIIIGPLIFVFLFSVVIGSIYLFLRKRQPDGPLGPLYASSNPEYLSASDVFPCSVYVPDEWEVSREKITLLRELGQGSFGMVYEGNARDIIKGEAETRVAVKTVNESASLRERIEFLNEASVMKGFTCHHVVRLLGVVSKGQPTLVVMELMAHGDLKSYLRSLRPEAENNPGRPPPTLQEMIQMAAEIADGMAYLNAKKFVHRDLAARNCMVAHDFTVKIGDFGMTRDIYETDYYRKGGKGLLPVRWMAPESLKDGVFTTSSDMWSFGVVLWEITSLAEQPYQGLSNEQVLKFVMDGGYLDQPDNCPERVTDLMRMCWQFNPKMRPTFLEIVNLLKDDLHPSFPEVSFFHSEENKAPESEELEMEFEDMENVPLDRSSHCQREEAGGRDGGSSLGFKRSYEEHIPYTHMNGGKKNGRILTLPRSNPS

Insulin receptor [6] = target: T2, Insulin receptor; assay: Inhibition of INSR (unknown origin)
Mus musculus [7] = assay: Inhibition of EGFR L858R/[…] double mutant phosphorylation in human NCI-H1975 cells xenografted in SCID mouse at 10 mg/kg, po measured 6 hrs post dose; format: functional; settings: NCI-H1975, 6 h
Mus musculus [8] = assay: Inhibition of EGFR exon 19 deletion activating mutant phosphorylation in human PC9 cells xenografted in SCID mouse at 10 mg/kg, po measured 24 hrs post dose; format: functional; settings: PC-9, 24 h
Mus musculus [9] = assay: Inhibition of EGFR L858R/[…] double mutant phosphorylation in human NCI-H1975 cells xenografted in SCID mouse at 10 mg/kg, po measured 24 hrs post dose; format: functional; settings: NCI-H1975, 24 h
[10] = Lipophilicity, log D of the compound at pH 7.4; format: physicochemical; settings: buffer
Rattus norvegicus = assay: Clearance in iv dosed Han Wistar rat; format: ADME, organism-based; settings: in vivo
[11] = Oral bioavailability in Han Wistar rat at 5 mg/kg; format: ADME, organism-based; settings: in vivo
NCI-H1975 = assay: Cytotoxicity against human NCI-H1975 cells harboring EGFR L858R/[…] double mutant assessed as growth inhibition after 72 hrs by SYTOX green nucleic acid staining-based fluorescence assay; format: functional; settings: Homo sapiens, NCI-H1975, 72 h
[12] = Cytotoxicity against human Calu3 cells assessed as growth inhibition after 72 hrs by SYTOX green nucleic acid staining-based fluorescence assay; format: functional, Calu-3; settings: Homo sapiens, Calu-3, 72 h
[13] = Intrinsic clearance in human hepatocytes measured per 10^6 cells; format: ADME, cell-based, Hepatocyte; settings: read-out: CLH
[14] = Cytotoxicity against human PC9 cells harboring EGFR exon 19 deletion activating mutant assessed as growth inhibition after 72 hrs by SYTOX green nucleic acid staining-based fluorescence assay; format: functional, PC-9; settings: Homo sapiens, PC-9, 72 h
[15] = target: Voltage-gated inwardly rectifying potassium channel KCNH2 (Homo sapiens, UniProt Q12809); assay: Inhibition of human ERG
Voltage-gated inwardly rectifying potassium channel KCNH2, sequence (Q12809 whole entry): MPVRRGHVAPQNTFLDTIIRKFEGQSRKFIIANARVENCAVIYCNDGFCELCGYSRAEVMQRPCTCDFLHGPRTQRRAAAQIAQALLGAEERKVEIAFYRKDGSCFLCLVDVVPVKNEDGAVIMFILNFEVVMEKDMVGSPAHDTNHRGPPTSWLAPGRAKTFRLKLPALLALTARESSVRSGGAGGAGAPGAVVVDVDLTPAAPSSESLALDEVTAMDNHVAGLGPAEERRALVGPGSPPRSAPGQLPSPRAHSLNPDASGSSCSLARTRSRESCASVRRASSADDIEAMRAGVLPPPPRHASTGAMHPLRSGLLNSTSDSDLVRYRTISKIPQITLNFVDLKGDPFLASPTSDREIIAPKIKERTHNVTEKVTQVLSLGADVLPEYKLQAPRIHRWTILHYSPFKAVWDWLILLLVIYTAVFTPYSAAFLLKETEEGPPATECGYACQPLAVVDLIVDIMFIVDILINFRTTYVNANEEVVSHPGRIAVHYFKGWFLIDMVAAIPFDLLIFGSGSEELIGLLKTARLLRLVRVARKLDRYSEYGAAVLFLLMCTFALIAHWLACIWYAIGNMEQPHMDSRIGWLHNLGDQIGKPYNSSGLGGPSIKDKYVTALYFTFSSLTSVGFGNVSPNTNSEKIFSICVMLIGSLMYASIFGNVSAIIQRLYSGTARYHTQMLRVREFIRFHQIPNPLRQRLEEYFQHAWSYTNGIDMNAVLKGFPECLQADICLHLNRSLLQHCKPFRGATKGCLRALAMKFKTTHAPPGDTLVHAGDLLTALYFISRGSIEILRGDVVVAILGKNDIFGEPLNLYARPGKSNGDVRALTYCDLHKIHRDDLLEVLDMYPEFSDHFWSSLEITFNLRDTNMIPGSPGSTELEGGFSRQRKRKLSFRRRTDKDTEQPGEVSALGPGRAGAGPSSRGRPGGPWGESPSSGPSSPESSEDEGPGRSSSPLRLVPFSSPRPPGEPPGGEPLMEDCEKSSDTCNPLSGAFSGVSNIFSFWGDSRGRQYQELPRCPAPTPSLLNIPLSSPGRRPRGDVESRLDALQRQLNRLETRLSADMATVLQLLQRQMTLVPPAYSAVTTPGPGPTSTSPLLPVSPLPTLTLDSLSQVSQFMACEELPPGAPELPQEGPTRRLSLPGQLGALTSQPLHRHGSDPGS

[16] = Unbound fraction in human plasma; format: ADME, cell-free
[17] = Cmax in mouse at 10 mg/kg, po; format: ADME, organism-based; design: dose 10 mg/kg, route oral; settings: in vivo
[18] = Thermodynamic solubility of the compound at pH 7.4; format: physicochemical; settings: buffer, read-out: Therm_solubility
[19] = Fraction unbound in Han Wistar rat plasma; format: ADME, cell-free

Row | IC50 [4] [nM] | logD [10] | fraction unbound [16] | solubility thermodynamic [18] [µM] | SMILES | GI50 (NCI-H1975) [nM] | GI50 [12] [nM] | GI50 [14] [nM] | further results
1 | 7 | – | – | – | C=CC(=O)Nc1cc(Nc2ncc(Cl)c(-c3cnn4ccccc34)n2)c(OC)cc1N1CC[C@@H](N(C)C)C1 | – | – | – | inhibition in vivo at 10 mg/kg/day [1]: 227%; inhibition in vivo at 10 mg/kg/day (A-431): 27%; inhibition [2]: 98%; inhibition in vivo at 10 mg/kg (Mus musculus [3]): 76%; inhibition (Insulin receptor [5]): 98%; IC50 (Insulin receptor [6]): 21 nM; inhibition in vivo at 10 mg/kg (Mus musculus [7]): 94%; inhibition in vivo at 10 mg/kg (Mus musculus [8]): 68%; inhibition in vivo at 10 mg/kg (Mus musculus [9]): 88%
2 | 196 | – | – | – | C=CC(=O)Nc1cc(Nc2ncc(C)c(-c3cn(C)c4ccccc34)n2)c(OC)cc1N(C)CCN(C)C | – | – | – | –
3 | 40 | 3.3 | 0.023 | 759 (≈ 405 µg/mL) | C=CC(=O)Nc1cc(Nc2ncc(Cl)c(-c3cn(C)c4ccccc34)n2)c(OC)cc1N(C)CCN(C)C | 4 | 192 | 3 | clearance (Rattus norvegicus): 27 mL/min/kg; bioavailability [11]: 7%; hepatocyte CLint [13]: 10 µL/min/1e6 cells; IC50 [15]: 7400 nM; Cmax [17]: 310 nM
4 | 7 | 3.3 | 0.036 | 75 (≈ 39 µg/mL) | C=CC(=O)Nc1cc(Nc2ncc(Cl)c(-c3c[nH]c4ccccc34)n2)c(OC)cc1N(C)CCN(C)C | 2 | 144 | 2 | fraction unbound [19]: 0.075
5 | 38 | 2.7 | 0.089 | 57 (≈ 29.9 µg/mL) | C=CC(=O)Nc1cc(Nc2ncc(C#N)c(-c3cn(C)c4ccccc34)n2)c(OC)cc1N(C)CCN(C)C | 2 | 101 | 0.8 | clearance (Rattus norvegicus): 62 mL/min/kg; fraction unbound [19]: 0.11; bioavailability [11]: 6%; hepatocyte CLint [13]: 10 µL/min/1e6 cells; IC50 [15]: 4300 nM; Cmax [17]: 110 nM

The remaining lines, values behind:

Row | SMILES | IC50 [4] [nM] | logD [10] | fraction unbound [16] | solubility thermodynamic [18] [µM] | GI50 (NCI-H1975) [nM] | GI50 [12] [nM] | GI50 [14] [nM] | further results
6 | C=CC(=O)Nc1cc(Nc2ncc(Cl)c(-c3cnn4ccccc34)n2)c(OC)cc1N1CCN(C(=O)CN(C)C)CC1 | – | 2.6 | – | – | – | – | – | –
7 | C=CC(=O)Nc1cc(Nc2ncc(Cl)c(-c3cnn4ccccc34)n2)c(OC)cc1N1CCN(C(=O)[C@@H](C)N)CC1 | – | 2.1 | – | – | – | – | – | –
8 | C=CC(=O)Nc1cc(Nc2ncc(Cl)c(-c3cnn4ccccc34)n2)c(OC)cc1N1CCN(C(=O)[C@@H]2CCCCN2)CC1 | – | 2.2 | – | – | – | – | – | –
